Key:
MDA-MB-435 = assay: Cancer cell growth inhibition, MDA-MB-435; type: cell-based; conditions: Homo sapiens; Melanoma, MDA-MB-435, cell viability, 72 h
Experimental: (§1) Cell culture-based assays were used to evaluate the ability of compounds of the invention to inhibit cancer cell growth inhibition.
(§2) Cells were obtained from the American Type Culture Collection (ATCC) and European Collection of Cell Cultures (ECACC).
(§3) Cells were thawed in their appropriate media plus supplements (see table below). Cells were passaged at confluence by washing once in HBSS cation-free followed by a 3 minutes incubation with trypsin ([0.5 μg/ml]/EDTA [0.2 μg/ml]) (Gibco-BRL, 15400054) solution in HBSS at 37° C. (except non-adherent cell lines), and transferred to their appropriate media plus supplements. Prior to seeding at defined cell concentration, cells were recovered in medium, centrifuged and taken up in medium, and counted.
(§4) Cells were plated at 3000/5000/10000 cells/well in 100 μl media in tissue culture 96 well plates (Cultek). After 24 h, media was supplemented by 100 μl/well of diluted IPDNs at 100 μM.
(§5) The Hexosaminidase assay was used for the adherent cell lines, whereas the AlamarBlue® assay was used for the non-adherent cell lines.
(§6) Dose-response curves were generated by serial dilutions (1:1) of the compounds. […] Reagent blanks, containing media plus colorimetric reagent without cells were run on each plate. Blank values were subtracted from test values and were routinely 5-10% of uninhibited control values. Plates were incubated 72 h, and living cell number was determined by AlamarBlue® and Hexosaminidase test. The advantages of using those assays are that both can be done in the same microwell plate. AlamarBlue® assay: plates were incubated 72 h and living cell number was determined by AlamarBlue (Biosource DAL1100). After 4 h incubation at 37° C., relative fluorescent intensity, which correlates with the number of living cells, was read in a Cytofluor plate reader (Millipore) at 535/590 nm (Excitation/emission). The hexosaminidase activity was measured according to the following protocol: the media was removed and cells were washed once with PBS.
(§7) Data analysis was done by calculating the percentage of cell viability normalized in front of negative control values, which were considered as a 100%. The curve was adjusted using a sigmoidal dose-response (variable slope) equation and EC50 values were obtained from the equation
(§8) where, X is the logarithm of concentration. Y is the response. Bottom is the Y value at the bottom plateau Top is the Y value at the top plateau LogEC50 is the X value when the response is halfway between Bottom and Top. With different kinds of variables, this variable is sometimes called ED50 (effective dose, 50%), or IC50 (inhibitory concentration, 50%, used when the curve goes downhill).

Jurkat = assay: Cancer cell growth inhibition, Jurkat; type: cell-based; conditions: Homo sapiens, Hematologic, cell viability, 72 h
Experimental: as §1, §2, §3, §4, §5, §6, §7, §8

RAMOS = assay: Cancer cell growth inhibition, RAMOS; type: cell-based; conditions: Homo sapiens, Hematologic, cell viability, 72 h
Experimental: as §1, §2, §3, §4, §5, §6, §7, §8

U-87MG = assay: Cancer cell growth inhibition, U-87MG; type: cell-based; conditions: Homo sapiens, Brain, cell viability, 72 h
Experimental: as §1, §2, §3, §4, §5, §6, §7, §8

BxPC3 = assay: Cancer cell growth inhibition, BxPC3; type: cell-based; conditions: Homo sapiens, BXPC-3; Pancreatic, BxPC3, cell viability, 72 h
Experimental: as §1, §2, §3, §4, §5
as §6, with “PBS. […]” for “PBS.”

HCT-116 = assay: Cancer cell growth inhibition, HCT-116; type: cell-based; conditions: Homo sapiens; Colorectal, HCT-116, cell viability, 72 h
Experimental: as §1, §2, §3, §4, §5, §6, §7, §8

SK-BR-3 = assay: Cancer cell growth inhibition, SK-BR-3; type: cell-based; conditions: Homo sapiens; Breast, SK-BR-3, cell viability, 72 h
Experimental: as §1, §2, §3, §4, §5
as §6, with “PBS. […]” for “PBS.”

LnCaP = assay: Cancer cell growth inhibition, LnCaP; type: cell-based; conditions: Homo sapiens, Prostate, cell viability, 72 h
Experimental: as §1, §2, §3, §4, §5, §6, §7, §8

NCI-H358 = assay: Cancer cell growth inhibition, NCI-H358; type: cell-based; conditions: Homo sapiens; Lung, NCI-H358, cell viability, 72 h
Experimental: as §1, §2, §3, §4, §5, §6, §7, §8

Panc-1 = assay: Cancer cell growth inhibition, Panc-1; type: cell-based; conditions: Homo sapiens; Pancreatic, Panc-1, cell viability, 72 h
Experimental: as §1, §2, §3, §4, §5, §6, §7, §8

HT-1080 = assay: Cancer cell growth inhibition, HT-1080; type: cell-based; conditions: Homo sapiens; HT-1080, cell viability, 72 h
Experimental: as §1, §2, §3, §4, §5, §6, §7, §8

CCFR-CEM = assay: Cancer cell growth inhibition, CCFR-CEM; type: cell-based; conditions: Hematologic, cell viability, 72 h
Experimental: as §1, §2, §3, §4, §5, §6, §7, §8

NCI-H1975 = assay: Cancer cell growth inhibition, NCI-H1975; type: cell-based; conditions: Homo sapiens; Lung, NCI-H1975, cell viability, 72 h
Experimental: as §1, §2, §3, §4, §5, §6, §7, §8

HeLa = assay: Cancer cell growth inhibition, HeLa; type: cell-based; conditions: Homo sapiens, Cervical, cell viability, 72 h
Experimental: as §1, §2, §3, §4, §5
as §6, with “PBS. […]” for “PBS.”

Human DNMT1 = molecular target: T1, Human DNMT1 (Homo sapiens, UniProt P26358); assay: DNMT1 enzymatic activity inhibition, radioisotope-based 3H-SAM filter binding assay; type: biochemical; conditions: 1 μM SAM, 25 nM DNMT1, 0.005 mg/ml Poly(dI-dC), 30° C. 1 hour, 10-dose
T1 construct: a-a 2-1632, with N-terminal GST tag; GST (N)
T1 sequence (P26358 2-1632 isoform P26358-2): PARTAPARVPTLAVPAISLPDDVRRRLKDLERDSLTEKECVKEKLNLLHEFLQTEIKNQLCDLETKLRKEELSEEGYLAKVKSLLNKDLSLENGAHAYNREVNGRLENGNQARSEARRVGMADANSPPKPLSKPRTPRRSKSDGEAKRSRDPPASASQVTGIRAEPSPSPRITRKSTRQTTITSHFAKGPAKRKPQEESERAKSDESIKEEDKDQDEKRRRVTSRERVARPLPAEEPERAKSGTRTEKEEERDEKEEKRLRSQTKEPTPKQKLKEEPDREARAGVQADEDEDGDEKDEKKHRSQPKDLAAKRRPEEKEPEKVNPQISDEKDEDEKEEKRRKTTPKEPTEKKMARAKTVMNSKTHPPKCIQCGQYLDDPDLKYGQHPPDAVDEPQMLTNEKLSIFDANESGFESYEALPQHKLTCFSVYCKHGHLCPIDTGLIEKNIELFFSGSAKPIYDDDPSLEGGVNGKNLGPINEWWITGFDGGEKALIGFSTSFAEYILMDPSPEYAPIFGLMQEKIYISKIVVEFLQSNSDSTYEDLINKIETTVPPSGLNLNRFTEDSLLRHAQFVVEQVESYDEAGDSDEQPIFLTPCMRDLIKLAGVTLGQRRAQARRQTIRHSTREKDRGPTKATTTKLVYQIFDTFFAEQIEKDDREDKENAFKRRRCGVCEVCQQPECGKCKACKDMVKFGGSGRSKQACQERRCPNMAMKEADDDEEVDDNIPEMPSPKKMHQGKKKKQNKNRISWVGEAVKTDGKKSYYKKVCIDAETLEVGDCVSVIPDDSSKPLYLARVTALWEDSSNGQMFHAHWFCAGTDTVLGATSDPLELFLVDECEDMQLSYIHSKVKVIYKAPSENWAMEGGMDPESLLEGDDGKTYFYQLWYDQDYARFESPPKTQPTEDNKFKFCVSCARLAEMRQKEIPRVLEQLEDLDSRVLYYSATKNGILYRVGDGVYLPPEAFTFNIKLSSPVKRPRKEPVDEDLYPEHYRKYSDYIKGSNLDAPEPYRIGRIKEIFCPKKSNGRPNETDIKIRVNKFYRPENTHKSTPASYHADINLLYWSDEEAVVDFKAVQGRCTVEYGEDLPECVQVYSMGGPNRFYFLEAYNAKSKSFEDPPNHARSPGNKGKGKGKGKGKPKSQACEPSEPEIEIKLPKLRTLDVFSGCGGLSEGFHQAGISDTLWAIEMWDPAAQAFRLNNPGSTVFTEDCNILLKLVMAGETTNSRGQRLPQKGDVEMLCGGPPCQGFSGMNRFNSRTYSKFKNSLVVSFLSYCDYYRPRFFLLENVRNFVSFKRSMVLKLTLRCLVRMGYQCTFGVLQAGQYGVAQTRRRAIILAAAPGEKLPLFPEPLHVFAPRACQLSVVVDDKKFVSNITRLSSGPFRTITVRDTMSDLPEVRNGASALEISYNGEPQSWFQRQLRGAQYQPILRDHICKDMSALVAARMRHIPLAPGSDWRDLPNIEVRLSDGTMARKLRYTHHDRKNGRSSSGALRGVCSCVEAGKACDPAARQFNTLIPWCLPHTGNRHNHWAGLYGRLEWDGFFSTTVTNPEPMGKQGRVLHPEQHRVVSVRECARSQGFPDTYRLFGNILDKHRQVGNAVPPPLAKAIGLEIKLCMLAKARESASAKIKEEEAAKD
Experimental: The inhibition of the enzymatic activity of DNMT1 was tested using low volume radioisotope-based assay which uses tritium-labeled AdoMet (^3H-SAM) as a methyl donor. Inhibitors diluted in DMSO were added by using acoustic technology (Echo550, Labcyte Inc. Sunnyvale, Calif.) into enzyme/substrate mixture in nano-liter range. The reaction was initiated by the addition of ^3H-SAM, and incubated at 30° C. for 1 hour. Total final methylations on the substrate poly(dI-dC) were detected by a filter binding approach. Data analysis was performed using GraphPad Prism software (La Jolla, Calif.) for IC50 curve fits.

MiaPaCa-2 = assay: Cancer cell growth inhibition, MiaPaCa-2; type: cell-based; conditions: Homo sapiens, MIA PaCa-2; Pancreatic, MiaPaCa-2, cell viability, 72 h
Experimental: as §1, §2, §3, §4, §5, §6, §7, §8

MCF-7 = assay: Cancer cell growth inhibition, MCF-7; type: cell-based; conditions: Homo sapiens, MCF7; Breast, MCF-7, cell viability, 72 h
Experimental: as §1, §2, §3, §4, §5, §6, §7, §8

A-431 = assay: Cancer cell growth inhibition, A-431; type: cell-based; conditions: Homo sapiens; Epidermoid, A-431, cell viability, 72 h
Experimental: as §1, §2, §3, §4, §5, §6, §7, §8

Daoy = assay: Cancer cell growth inhibition, Daoy; type: cell-based; conditions: Homo sapiens, Brain, cell viability, 72 h
Experimental: as §1, §2, §3, §4, §5, §6, §7, §8

A-549 = assay: Cancer cell growth inhibition, A-549; type: cell-based; conditions: Homo sapiens, A549; Lung, A-549, cell viability, 72 h
Experimental: as §1, §2, §3, §4, §5, §6, §7, §8

U-373MG = assay: Cancer cell growth inhibition, U-373MG; type: cell-based; conditions: Homo sapiens, U373 MG, Brain, cell viability, 72 h
Experimental: as §1, §2, §3, §4, §5
as §6, with “PBS. […]” for “PBS.”

HT-29 = assay: Cancer cell growth inhibition, HT-29; type: cell-based; conditions: Homo sapiens; Colorectal, HT-29, cell viability, 72 h
Experimental: as §1, §2, §3, §4, §5
as §6, with “PBS. […]” for “PBS.”

PC3 = assay: Cancer cell growth inhibition, PC3; type: cell-based; conditions: Homo sapiens, PC-3; Prostate, PC3, cell viability, 72 h
Experimental: as §1, §2, §3, §4, §5, §6, §7, §8

MDA-MB-468 = assay: Cancer cell growth inhibition, MDA-MB-468; type: cell-based; conditions: Homo sapiens; Breast, MDA-MB-468, cell viability, 72 h
Experimental: as §1, §2, §3, §4, §5
as §6, with “PBS. […]” for “PBS.”

143B = assay: Cancer cell growth inhibition, 143B; type: cell-based; conditions: Homo sapiens, Osteosarcoma, cell viability, 72 h
Experimental: as §1, §2, §3, §4, §5, §6, §7, §8

| Compound | EC50 (MDA-MB-435) [µM] | EC50 (Jurkat) [µM] | EC50 (RAMOS) [µM] | EC50 (U-87MG) [µM] | EC50 (HCT-116) [µM] | EC50 (LnCaP) [µM] | EC50 (NCI-H358) [µM] | EC50 (Panc-1) [µM] | EC50 (CCFR-CEM) [µM] | IC50 (Human DNMT1) [µM] | EC50 (A-431) [µM] | EC50 (Daoy) [µM] | EC50 (A-549) [µM] | other results |
| --- | --- | --- | --- | --- | --- | --- | --- | --- | --- | --- | --- | --- | --- | --- |
| COc1ccc2c(-c3ccc(O)c(O)c3)cn(CC(=O)c3ccc(O)c(O)c3)c2c1 [Example 4, 1-(3,4-dihydroxyphenyl)-2-[3-(3,4-dihydroxyphenyl)-6-methoxy-1H-indol-1-yl]ethanone] | 14 | 24 | 51 | 20 | 51 | 28 | 11 | 27 | 45 | 13.8 | 30 | 47 | 97 | EC50 (BxPC3): 53 µM; EC50 (SK-BR-3): 20 µM; EC50 (HT-1080): 31 µM; EC50 (NCI-H1975): 46 µM; EC50 (HeLa): 36 µM; EC50 (MiaPaCa-2): 66 µM; EC50 (MCF-7): 30 µM; EC50 (U-373MG): 21 µM |
| COc1cc(OC)c2c(-c3ccc(O)c(O)c3)cn(CC(=O)c3ccc(O)c(O)c3)c2c1 [Example 8, 1-(3,4-dihydroxyphenyl)-2-[3-(3,4-dihydroxyphenyl)-4,6-dimethoxy-1H-indol-1-yl]ethanone] | 23 | 56 | 55 | 22 | 96 | 27 | 50 | 55 | 34 | 6.85 | 59 | 50 | 93 | EC50 (HT-29): 59 µM; EC50 (PC3): 48 µM; EC50 (MDA-MB-468): 94 µM; EC50 (143B): 19 µM |

From patent US20150336889A1, “INDOLE DERIVATIVES, PHARMACEUTICAL COMPOSITIONS CONTAINING SUCH INDOLES AND THEIR USE AS DNA METHYLATION MODULATORS” (IKERCHEM, S.L., priority 2012, published 2015)
